Reference: patent US10106757B2, “Ionic liquid, lubricant, and magnetic recording medium” (DEXERIALS CORPORATION, priority 2016, dated 2018)

Tests used:
[1] = Thermal stability by TG/DTA measurement; assay type: physicochemical; conditions: for Weight reduction temperatures higher than / thermal stability improved compared with Z-DOL: compared with Z-DOL (Comparative Example 5C); for Weight reduction temperatures higher than / thermal stability improved compared with Z-TETRAOL: compared with Z-TETRAOL (Comparative Example 6C); for Weight reduction temperature 5% / Weight reduction temperature 10% / Weight reduction temperature 20%: TG/DTA, 30-600° C., 10° C./min, air 200 mL/min
[2] = Solubility test in hydrocarbon-based solvent n-hexane; assay type: physicochemical; conditions: 25° C., 0.5 parts by mass added to 100 parts, ultrasonic 5 minutes, left 1 day, visually observed
Method: (§1) To a predetermined amount of Vertrel XF or n-hexane, the ionic liquid, Z-DOL, or Z-TETRAOL was added. Ultrasonic waves were applied to the resultant mixture for 5 minutes, followed by leaving the mixture to stand for 1 day. The solubility was visually observed.
(§2) In case of n-hexane, similarly, 0.5 parts by mass of the ionic liquid, Z-DOL, or Z-TETRAOL was added to 100 parts by mass of n-hexane at 25° C. After applying ultrasonic waves to the resultant for 5 minutes, the resultant was left to stand for 1 day. Thereafter, the solubility was visually observed and evaluated based on the following evaluation criteria.
[Evaluation Criteria (Hydrocarbon-Based Solvent)]
• 0.5% by mass or greater:
Soluble with addition of 0.5 parts by mass • Less than 0.5% by mass:
Insoluble with addition of 0.5 parts by mass
(§3) Note that, the solubility was visually observed, and it was judged as soluble when it was transparent. Moreover, it was judged as not soluble (insoluble) when it was opaque or insoluble components were observed.

[3] = Solubility test in fluorine-based solvent Vertrel XF; assay type: physicochemical; conditions: 25° C., 0.2 parts by mass added to 100 parts, ultrasonic 5 minutes, left 1 day, visually observed
Method: as §1
as §2, with “Specifically, 0.2” for “In case of n-hexane, similarly, 0.5”, “Vertrel XF (25° C.).” for “n-hexane at 25° C.”
[Evaluation Criteria (Fluorine-Based Solvent)]
• 0.2% by mass or greater:
Soluble with addition of 0.2 parts by mass • Less than 0.2% by mass:
Insoluble with addition of 0.2 parts by mass
as §3

[4] = in acetonitrile; cited from earlier work

Row | Compound | Weight reduction temperatures higher than / thermal stability improved compared with Z-DOL [1] | Weight reduction temperatures higher than / thermal stability improved compared with Z-TETRAOL [1] | Weight reduction temperature 5% [1] | Weight reduction temperature 10% [1] | Weight reduction temperature 20% [1] | Solubility n-hexane [2] | Solubility Vertrel XF [3] | also measured
1 | CCCCCCCCCCCCCCCCCCn1cc[n+](CCCCCCCCCCCCCCCCCC)c1CCCCCCCCCCCCCCCCC.O=S(=O)([N-]S(=O)(=O)C(F)(F)C(F)(F)C(F)(F)C(F)(F)F)C(F)(F)C(F)(F)C(F)(F)C(F)(F)F | ≥ 140 °C | ≥ 60 °C | – | – | – | – | – | –
2 | CCCCCCCCCCCCn1cc[n+](CCCCCCCCCCCC)c1CCCCCCCCCCC.O=S(=O)([N-]S(=O)(=O)C(F)(F)C(F)(F)C(F)(F)C(F)(F)F)C(F)(F)C(F)(F)C(F)(F)C(F)(F)F | ≥ 170 °C | ≥ 90 °C | – | – | – | – | – | –
3 | nonafluorobutanesulfonic acid-1,3-dioctadecyl-2-heptadecylimidazolium | ≥ 110 °C | ≥ 40 °C | 279.7 °C | 310.9 °C | 361.9 °C | – | – | –
4 | CCCCCCCCCCCCCCCCCCn1cc[n+](CCCCCCCCCCCCCCCCCC)c1CCCCCCCCCCCCCCCCC.O=S(=O)([N-]S(=O)(=O)C(F)(F)C(F)(F)C(F)(F)C(F)(F)F)C(F)(F)C(F)(F)C(F)(F)C(F)(F)F [Ex. 4A, bis(nonafluorobutanesulfonyl)imide-1,3-dioctadecyl-2-heptadecylimidazolium] | – | – | 300.1 °C | 337.3 °C | 385.8 °C | ≥ 0.5% by mass | < 0.2% by mass | Solubility n-hexane ([2]; listed as Example 4A): ≥ 0.5 % by mass; Solubility Vertrel XF ([3]; listed as Example 4A): less than 0.2 % by mass
5 | O=S(=O)(C(S(=O)(=O)C(F)(F)F)S(=O)(=O)C(F)(F)F)C(F)(F)F [(CF3SO2)3CH] | – | – | – | – | – | – | – | pKa [4]: −3.7
6 | nonafluorobutanesulfonic acid-1,3-didodecyl-2-undecylimidazolium | ≥ 130 °C | ≥ 40 °C | 287.9 °C | 331.8 °C | 378.4 °C | – | – | –
7 | CCCCCCCCCCCCCCCCCC[n+]1ccn(CCCC)c1.O=S1(=O)[N-]S(=O)(=O)C(F)(F)C(F)(F)C1(F)F [Comp. Ex. 2A, hexafluorocyclopropane-1,3-bis(sulfonyl)imide-1-butyl-3-n-octadecylimidazolium, reference compound] | – | – | – | – | – | < 0.5% by mass | < 0.2% by mass | –
8 | CCCCCCCCCCCCn1cc[n+](CCCCCCCCCCCC)c1CCCCCCCCCCC.O=S(=O)([N-]S(=O)(=O)C(F)(F)C(F)(F)C(F)(F)C(F)(F)F)C(F)(F)C(F)(F)C(F)(F)C(F)(F)F [Ex. 2A, bis(nonafluorobutanesulfonyl)imide-1,3-didodecyl-2-undecylimidazolium] | – | – | 335.7 °C | 368.9 °C | 395.7 °C | ≥ 0.5% by mass | ≥ 0.2% by mass | Solubility n-hexane ([2]; listed as Example 2A): ≥ 0.5 % by mass; Solubility Vertrel XF ([3]; listed as Example 2A): ≥ 0.2 % by mass
